Earlier results in patent US20240050531A1, “A METHOD FOR REVERSING AGING BRAIN FUNCTIONAL DECLINE” (THE CHINESE UNIVERSITY OF HONG KONG, priority 2020, published 2024).
Where two headings read alike, the source gives them in different places.

Legend:
[1] = target: T1, GLP-1R (Rattus norvegicus, UniProt P32301)
T1 construct: host or cells: living rats (8 weeks old), endogenous receptor
T1 sequence (P32301 22-463): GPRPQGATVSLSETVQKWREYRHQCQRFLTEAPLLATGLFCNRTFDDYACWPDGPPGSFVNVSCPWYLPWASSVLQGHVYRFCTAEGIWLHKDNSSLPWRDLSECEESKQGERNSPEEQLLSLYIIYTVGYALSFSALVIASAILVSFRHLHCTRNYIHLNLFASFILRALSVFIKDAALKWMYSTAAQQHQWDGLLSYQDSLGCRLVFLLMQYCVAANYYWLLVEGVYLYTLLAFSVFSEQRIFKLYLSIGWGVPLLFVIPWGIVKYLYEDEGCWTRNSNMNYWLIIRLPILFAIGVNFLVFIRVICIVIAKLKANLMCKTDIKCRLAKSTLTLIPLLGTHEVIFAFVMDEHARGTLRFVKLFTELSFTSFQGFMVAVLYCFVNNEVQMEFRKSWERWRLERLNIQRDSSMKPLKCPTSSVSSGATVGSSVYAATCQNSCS

[2] = intraperitoneal (i.p.) injection

| Substance | associative and spatial learning ([1]; intracerebroventricular (i.c.v) administration, 8 weeks old rats) | associative and spatial learning ([1]; peripheral administration) | hippocampus-associated reference memory performance [2] | immobility in the forced swim test [2] |
| --- | --- | --- | --- | --- |
| [Ser(2)]exendin(1-9) | enhance associative and spatial learning | also active | – | – |
| exendin-4 | – | – | improves | decreases immobility |
